Reference: article doi:10.1101/2022.03.26.485909v4 (biorxiv, 2022)
pIC50, pKd: −log10 of the molar value.

Key:
SPOP^MATH = SPOP^MATH (Homo sapiens, UniProt O43791); assay: fluorescence polarization, displacement of FITC-puc_SBC1 peptide; assay type: binding
RNF130 = biological target: T1, RNF130 (Homo sapiens, UniProt Q86XS8); assay: SPR, Biacore T200, amine-coupled RNF130 on CM5 chip; assay type: binding
T1 sequence (Q86XS8 28-304): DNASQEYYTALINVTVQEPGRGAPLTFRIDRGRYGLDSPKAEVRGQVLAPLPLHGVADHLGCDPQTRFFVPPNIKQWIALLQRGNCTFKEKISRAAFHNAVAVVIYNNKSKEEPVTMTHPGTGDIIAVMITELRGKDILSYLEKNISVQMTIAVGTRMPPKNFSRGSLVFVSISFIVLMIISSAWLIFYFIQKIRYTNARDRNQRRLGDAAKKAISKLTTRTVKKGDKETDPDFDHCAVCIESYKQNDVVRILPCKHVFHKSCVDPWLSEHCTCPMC

SPOP^MATH, sequence (O43791 28-166): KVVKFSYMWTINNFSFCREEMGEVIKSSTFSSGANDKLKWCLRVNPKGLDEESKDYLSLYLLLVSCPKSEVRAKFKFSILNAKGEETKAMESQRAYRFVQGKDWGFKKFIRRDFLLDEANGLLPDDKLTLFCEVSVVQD

SMILES | pIC50 (SPOP^MATH) | pKd (RNF130)
Cc1nnc(SCC2=C(C(=O)O)N3C(=O)C(NC(=O)c4ccc(COc5ccccc5Cl)o4)C3SC2)s1 (stereo not drawn) [221C7] | 5.37 | 
CC(=O)OCC1=C(C(=O)O)N2C(=O)C(NC(=O)c3ccc(COc4ccc(Br)cc4Cl)o3)C2SC1 (stereo not drawn) [230D7, 3-(acetoxymethyl)-7-(5-((4-bromo-2-chlorophenoxy)methyl)furan-2-carboxamido)-8-oxo-5-thia-1-azabicyclo[4.2.0]oct-2-ene-2-carboxylic acid] | 5.06 | 
CS(=O)(=O)c1nnc(CN2C3C=C(c4ccccc4)CC2CC3)s1 (stereo not drawn) [iRNF130-63] |  | 5.03
